The values below come from patent publication EP0178438A1, “Novel compounds” (BEECHAM GROUP PLC, priority 1984, dated 1986).

One may read the inhibition in vivo as the percentage by which the read-out fell short of the control. A low value points to little suppression.

In this experiment the test system is acid secretion. The experiment can be described thus: perfused rat stomach preparation (anti-secretory response, pH of perfusate). In kind it is in vivo, male Wistar rats. The following applies: bolus intravenous injection, maximal reduction in hydrogen-ion concentration as percentage of control, carbachol or histamine stimulated, urethane anaesthetized rat; for inhibition in vivo at 2 µmol/kg: Dose 2 μmol/kg; for inhibition in vivo at 2.5 µmol/kg: Dose 2.5 μmol/kg; for inhibition in vivo at 1 µmol/kg: Dose 1 μmol/kg. On the procedure:
The modified (1) perfused stomach preparation (2) ofthe urethane (25% solution) anaesthetized rat, maintained at 37 °C, allows the continuous measurement of pH during basal and stimulated acid secretion.
The lumen of the stomach of male Wistar rats (approximately 200 g bodyweight) was perfused, via a cannula designed to reduce the dead space of the stomach, with 5% glucose solution (37°C) at the rate of 3 ml/min. The perusate was forced over the surface of the secretory mucose only, the antrum being excluded. The effluent then passed over a microflow type glass pH electrode via a collecting funnel situated in the non-glandular forestomach.
The secretagogue carbachol or histamine was administered as a constant intravenous infusion to produce a stady rate of acid secretion. Test compounds were administered in solution as bolus intravenous injections and any effect on th pH of the perfusate noted. The perfusate Ph was recorded on a potentiometric recorder and anti-secretory responses were measure in terms of the maximal reduction in hydrogen-ion concentration expressed as a percentage of the 'control' concentrations.

For the compound `Cc1cnc(C[S+]([O-])c2nc3cc(Cl)ccc3[nH]2)c(C)c1N(C)C` (centres unmarked) [Example 11b, 5-Chloro-2-[(4-dimethylamino-3,5-dimethypyrid-2-yl)-methylsulphinyl]benzimidazole], the inhibition in vivo at 2 µmol/kg is 37%.

With `Cc1c(C[S+]([O-])c2nc3ccccc3[nH]2)ncnc1N(C)C` (centres unmarked) [Example 27b, 2-[(5-Methyl-4-dimethylamino-pyrimidin-6-yl)methylsulphinyl]benzimidazole], the inhibition in vivo at 2.5 µmol/kg came to 92%.

On to `Cc1cnc(C[S+]([O-])c2nc3ccc(Cl)cc3[nH]2)c(C)c1N1CCOCC1` (centres unmarked) [Example 14b, 5-Chloro-2-[(3,5-dimethyl-4-morpholinopyrid-2-yl)-methylsulphinyl]benzimidazole], for which the inhibition in vivo at 1 µmol/kg was found to be 60%.

For the compound `Cc1c(C[S+]([O-])c2nc3ccccc3[nH]2)ncnc1N1CCOCC1` (centres unmarked) [Example 26b, 2-[(5-Methyl-4-morpholino-pyrimidin-6-yl)methylsulphinyl]benzimidazole], the inhibition in vivo at 2.5 µmol/kg was determined as 84%.

The compound `Cc1c(N2CCOCC2)ccnc1C[S+]([O-])c1nc2ccccc2[nH]1` (centres unmarked) [Example 21b, 2-[(3-Methyl-4-morpholino-pyrid-2-yl)methylsulphinyl]-benzimidazole] registered an inhibition in vivo at 2 µmol/kg of 87%.

The compound `Cc1c(N(C)c2ccccc2)ccnc1C[S+]([O-])c1nc2ccccc2[nH]1` (centres unmarked) [Example 24b] showed an inhibition in vivo at 2 µmol/kg of 100%.

For the compound `Cc1cnc(C[S+]([O-])c2nc3ccccc3[nH]2)c(C)c1N(C)C` (centres unmarked) [Example 2, 2-[ (4-Dimethylamino-3,5-dimethylpyrid-2-1)methylsulphinyl] benzimidazole], the inhibition in vivo at 1 µmol/kg is 37%.

For the compound `Cc1cnc(C[S+]([O-])c2nc3ccccc3[nH]2)c(C)c1N1CCCCC1` (centres unmarked) [Example 6b, 2-[(3,5-dimethyl-4-(piperid-1-yl)pyrid-2-yl)methylsulphinyl]benzimidazole], the inhibition in vivo at 2 µmol/kg was determined as 50%.

Under “Dose 5 μmol/kg”, `Cc1cnc(C[S+]([O-])c2nc3ccccc3[nH]2)c(C)c1Nc1ccccc1` (centres unmarked) [Example 23b, 2-[(3,5-Dimethyl-4-N-anilino-pyrid-2-yl)methylsulphinyl]benzimidazole] came in with an inhibition in vivo at 5 µmol/kg of 86%.

`Cc1c(C[S+]([O-])c2nc3ccccc3[nH]2)ncnc1N1CCCCC1` (centres unmarked) [Example 25b, 2-[(5-Methyl-4-(1-piperidinyl)-pyrimidin-6-yl)methylsulphinyl]benzimidazole] had an inhibition in vivo at 2 µmol/kg of 84%.

Regarding `Cc1cnc(C[S+]([O-])c2nc3ccccc3[nH]2)c(C)c1N1CCOCC1` (centres unmarked) [Example 8b, 2-[(3,5-dimethyl-4-morpholino-pyrid-2-yl)methylsulphinyl]benzimidazole], for the setting “Dose 0.5 μmol/kg”, the inhibition in vivo at 0.5 µmol/kg was determined as 72%.
